This note sets out measurements from BindingDB's records for doi:10.1111/cbdd.12457 (Universiti Kebangsaan Malaysia, Jalan Raja Muda Abdul Aziz, 2015).

For assay [1], the target named is T1, Prostaglandin G/H synthase 1 (Ovis aries, UniProt P05979).
T1 sequence (P05979 whole entry): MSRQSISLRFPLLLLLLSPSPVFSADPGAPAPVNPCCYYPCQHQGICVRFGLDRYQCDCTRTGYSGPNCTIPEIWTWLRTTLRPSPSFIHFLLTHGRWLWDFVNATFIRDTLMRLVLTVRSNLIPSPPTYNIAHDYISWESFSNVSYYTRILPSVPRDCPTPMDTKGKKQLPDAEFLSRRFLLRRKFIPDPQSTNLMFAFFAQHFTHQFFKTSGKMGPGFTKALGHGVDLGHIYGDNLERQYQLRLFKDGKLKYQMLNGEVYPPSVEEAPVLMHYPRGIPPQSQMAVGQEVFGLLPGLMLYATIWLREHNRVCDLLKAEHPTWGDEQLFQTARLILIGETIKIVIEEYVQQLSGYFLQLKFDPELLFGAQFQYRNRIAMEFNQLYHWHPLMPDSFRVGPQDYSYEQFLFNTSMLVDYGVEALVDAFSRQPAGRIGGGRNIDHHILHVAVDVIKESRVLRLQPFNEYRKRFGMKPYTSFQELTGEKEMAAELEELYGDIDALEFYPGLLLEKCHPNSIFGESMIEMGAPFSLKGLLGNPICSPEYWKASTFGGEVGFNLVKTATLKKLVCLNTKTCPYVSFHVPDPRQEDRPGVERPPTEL
Kind of assay: Cyclooxygenase Assay. The following applies: pH 8; 25 °C. As for the experimental part: (§1) 100 mM Tris HCl buffer, pH 8.0 containing 1 µM heme and COX-1 (ovine) or COX-2(human recombinant), which was preincubated for 10 min in a water bath at 37 °C was used for reaction mixture preparation. Addition of 10 µL arachidonic acid to the reaction mixture (final concentration 100 µM) was used to initiate reaction. After 2 min reaction was stopped by addition of 1 M HCl. PGE2 in the reaction mixture was determined using ELISA method. 100 mM potassium phosphate buffer (pH 7.4) was used to dilute the DMSO stock solutions of the test compounds to the desired concentration. This reaction mixture was transferred to a 96-well platethat was precoated with a mouse anti-rabbit IgG. Tracer prostaglandin acetylcholine esterase and primary antibody (mouse anti PGE2) were also added to the plates followed by overnight incubation at room temperature. After overnightincubation, reaction mixtures were pipetted out and the wells were washed with 10 mM potassium phosphate buffer containing 0.05% Twe

Assay [2] concerns the target T2, Prostaglandin G/H synthase 2 (Homo sapiens, UniProt P35354).
T2 sequence (P35354 whole entry): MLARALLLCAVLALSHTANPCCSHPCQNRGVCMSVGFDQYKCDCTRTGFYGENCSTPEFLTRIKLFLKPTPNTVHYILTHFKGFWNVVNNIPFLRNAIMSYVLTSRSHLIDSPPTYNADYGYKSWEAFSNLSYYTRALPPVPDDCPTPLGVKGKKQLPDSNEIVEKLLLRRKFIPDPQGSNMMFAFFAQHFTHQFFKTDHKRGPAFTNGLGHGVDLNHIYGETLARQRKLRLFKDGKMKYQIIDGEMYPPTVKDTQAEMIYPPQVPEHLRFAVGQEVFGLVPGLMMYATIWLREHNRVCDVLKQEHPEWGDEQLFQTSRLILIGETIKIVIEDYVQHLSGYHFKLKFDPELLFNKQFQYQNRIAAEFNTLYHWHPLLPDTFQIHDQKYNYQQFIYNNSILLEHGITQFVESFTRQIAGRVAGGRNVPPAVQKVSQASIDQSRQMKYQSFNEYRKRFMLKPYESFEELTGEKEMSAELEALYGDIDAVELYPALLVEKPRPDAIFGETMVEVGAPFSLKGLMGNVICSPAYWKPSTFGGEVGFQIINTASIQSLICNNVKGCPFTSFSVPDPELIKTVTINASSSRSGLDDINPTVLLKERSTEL
Briefly: Cyclooxygenase Assay. Particulars: pH 8; 25 °C. On the procedure: as §1

The next assay addresses T3, Phospholipase A2 group V (Homo sapiens, UniProt P39877).
T3 sequence (P39877 whole entry): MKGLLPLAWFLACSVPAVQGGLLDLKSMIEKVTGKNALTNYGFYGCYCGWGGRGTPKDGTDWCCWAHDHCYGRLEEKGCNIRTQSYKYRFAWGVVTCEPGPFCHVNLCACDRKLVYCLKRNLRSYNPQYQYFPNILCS
Briefly: sPLA2V Activity Assay. Particulars: pH 7.5; 25 °C. As for the experimental part: Briefly, sn-2ester bond of the substrate 1,2-bis(heptanoylthio)-glycerophosphocholine was hydrolyzed by PLA2-V followed by the exposure of free thiols. These thiols activated the conversion of DTNB (5,5–dithio-bis-(2-nitrobenzoic acid) to 2-nitro-5-thiobenzoic acid, which was photometrically detected at 405 nm. After this, the assay proceeded in an aqueous buffer solution (pH 7.5) containing KCl (94 mM), CaCl2 (9 mM), Tris (24 mM), and Triton-X 100 ([…]). Before the assay was started, substrate and PLA2-V was resuspended in assay buffer whereas DTNB was dissolved in an aqueous solution of Tris-HCl (pH 8) yielding an enzyme and DTNB concentrations of 100 ng/mL and 87 BM, respectively. 96-well micro titre plates containing substrate solution, DTNB, and the respective test substance were used to carry out assays at room temperature.

Usually IC50 stands for the concentration that gives 50% inhibition. Low readings indicate greater potency in that assay, high ones weaker potency in that assay. With `CN(C)c1ccc(/C=C/C(=O)c2ccc3c(c2)OCCO3)c2ccccc12` [1-(2,3-Dihydro-benzo[1,4]dioxin-6-yl)-3-(4-dimethylamino-naphthalen-1-yl)-propenone (4)], the IC50 was determined as 7.06 µM in assay [1], 24.5 µM in assay [2] and 32.2 µM against Phospholipase A2 group V.

Consider `COc1cc2ccccc2c(/C=C/C(=O)c2cc3ccccc3o2)c1OC` [1-Benzofuran-2-yl-3-(2,3-dimethoxy-naphthalen-1-yl)-propenone (3)], for which the IC50 came out at 12.5 µM in assay [1], 12.2 µM in assay [2] and 12.7 µM on Phospholipase A2 group V.

Take `COc1ccc2c(OC)ccc(/C=C/C(=O)c3cc4ccccc4o3)c2c1` [1-Benzofuran-2-yl-3-(4,7-dimethoxy-naphthalen-1-yl)-propenone (2)]: the IC50 in assay [1] was 15 µM; in assay [2], 19.1 µM; against Phospholipase A2 group V, 27.8 µM.

Take `COc1cc2ccccc2c(C2CC(c3ccc4c(c3)OCCO4)=NN2C(N)=S)c1OC` (stereo unspecified) [3-(2,3-Dihydro-benzo[1,4]dioxin-6-yl)-5-(2,3-dimethoxy-naphthalen-1-yl)-4,5-dihydro-pyrazole-1-carbothioic acid amide (5a)]: the IC50 in assay [1] is 3.42 µM; in assay [2] it was 17.8 µM; against Phospholipase A2 group V, 19.2 µM.

In the case of `COc1cc2ccccc2c(C2CC(c3ccc4c(c3)OCCO4)=NN2C(=O)Nc2ccc(Cl)cc2)c1OC` (stereo unspecified) [3-(2,3-Dihydro-benzo[1,4]dioxin-6-yl)-5-(2,3-dimethoxy-naphthalen-1-yl)-4,5-dihydropyrazole-1-carboxylic acid (4-chloro-phenyl)-amide (5b)], the half-inhibitory concentration (IC50) in assay [1] came to 1.17 µM; in assay [2] it was 12.3 µM; against Phospholipase A2 group V, 17.3 µM.

`COc1ccc2c(OC)ccc(C3CC(c4ccc5c(c4)OCCO5)=NN3C(N)=S)c2c1` (stereo unspecified) [3-(2,3-Dihydro-benzo[1,4]dioxin-6-yl)-5-(4,7-dimethoxy-naphthalen-1-yl)-4,5-dihydro-pyrazole-1-carbothioic acid amide (6a)]: the results for the IC50 (in assay [1]; in assay [2]; on Phospholipase A2 group V) were 2.82 µM, 12.6 µM and 7.12 µM, respectively.

In the case of `COc1ccc2c(OC)ccc(C3CC(c4ccc5c(c4)OCCO5)=NN3C(=O)Nc3ccc(Cl)cc3)c2c1` (stereo unspecified) [3-(2,3-Dihydro-benzo[1,4]dioxin-6-yl)-5-(4,7-dimethoxy-naphthalen-1-yl)-4,5-dihydropyrazole-1-carboxylic acid (4-chloro-phenyl)-amide (6b)], the results for the IC50 (in assay [1]; in assay [2]; on Phospholipase A2 group V) were 0.94 µM, 12 µM and 5.12 µM, respectively.

Consider `CN(C)c1ccc(C2CC(c3ccc4c(c3)OCCO4)=NN2C(N)=S)c2ccccc12` (stereo unspecified) [3-(2,3-Dihydro-benzo[1,4]dioxin-6-yl)-5-(4-dimethylamino-naphthalen-1-yl)-4,5-dihydropyrazole-1-carbothioic acid amide (4a)], for which the IC50 in assay [1] was 1.12 µM; in assay [2], 13.2 µM; on Phospholipase A2 group V, 22.2 µM.

Regarding `CN(C)c1ccc(C2CC(c3ccc4c(c3)OCCO4)=NN2C(=O)Nc2ccc(Cl)cc2)c2ccccc12` (stereo unspecified) [3-(2,3-Dihydro-benzo[1,4]dioxin-6-yl)-5-(4-dimethylamino-naphthalen-1-yl)-4,5-dihydropyrazole-1-carboxylic acid (4-chloro-phenyl)-amide (4b)], the results for the IC50 (in assay [1]; in assay [2]; against Phospholipase A2 group V) were 0.44 µM, 9.72 µM and 17.2 µM, respectively.

In the case of `COc1cc2ccccc2c(C2CC(c3cc4ccccc4o3)=NN2C(N)=S)c1OC` (stereo unspecified) [3-Benzofuran-2-yl-5-(2,3-dimethoxy-naphthalen-1-yl)-4,5-dihydro-pyrazole-1-carbothioic acid amide (3a)], the IC50 in assay [1] came to 8.06 µM; in assay [2] it was 10.3 µM; at Phospholipase A2 group V, 9.17 µM.

On to `COc1cc2ccccc2c(C2CC(c3cc4ccccc4o3)=NN2C(=O)Nc2ccc(Cl)cc2)c1OC` (stereo unspecified) [3-Benzofuran-2-yl-5-(2,3-dimethoxy-naphthalen-1-yl)-4,5-dihydro-pyrazole-1-carboxylic acid(4-chloro-phenyl)-amide (3b)], for which the IC50 in assay [1] came out at 0.99 µM; in assay [2] it was 5.02 µM; at Phospholipase A2 group V it was 8.46 µM.

On to `COc1ccc2c(OC)ccc(C3CC(c4cc5ccccc5o4)=NN3C(N)=S)c2c1` (stereo unspecified) [3-Benzofuran-2-yl-5-(4,7-dimethoxy-naphthalen-1-yl)-4,5-dihydro-pyrazole-1-carbothioic acid amide (2a)], for which the concentration for half-maximal inhibition (IC50) in assay [1] came to 7.22 µM; in assay [2], 12.3 µM; on Phospholipase A2 group V it was 21.1 µM.

In the case of `COc1ccc2c(OC)ccc(C3CC(c4cc5ccccc5o4)=NN3C(=O)Nc3ccc(Cl)cc3)c2c1` (stereo unspecified) [3-Benzofuran-2-yl-5-(4,7-dimethoxy-naphthalen-1-yl)-4,5-dihydro-pyrazole-1-carboxylic acid(4-chloro-phenyl)-amide (2b)], the IC50 was 2.14 µM in assay [1], 11.1 µM in assay [2] and 14.5 µM against Phospholipase A2 group V.

`CN(C)c1ccc(C2CC(c3cc4ccccc4o3)=NN2C(N)=S)c2ccccc12` (stereo unspecified) [3-Benzofuran-2-yl-5-(4-dimethylamino-naphthalen-1-yl)-4,5-dihydro-pyrazole-1-carbothioic acid amide (1a)]: the concentration for half-maximal inhibition (IC50) in assay [1] is 4.53 µM; in assay [2] it was 14.5 µM; against Phospholipase A2 group V it was 35.4 µM.

On to `CN(C)c1ccc(C2CC(c3cc4ccccc4o3)=NN2C(=O)Nc2ccc(Cl)cc2)c2ccccc12` (stereo unspecified) [3-Benzofuran-2-yl-5-(4-dimethylamino-naphthalen-1-yl)-4,5-dihydro-pyrazole-1-carboxylic acid(4-chloro-phenyl)-amide (1b)], for which the concentration for half-maximal inhibition (IC50) was found to be 1.87 µM in assay [1], 9.1 µM in assay [2] and 22.2 µM on Phospholipase A2 group V.

On to `C[C@@H]1C[C@H]2[C@@H]3CCC4=CC(=O)C=C[C@]4(C)[C@@]3(F)[C@@H](O)C[C@]2(C)[C@@]1(O)C(=O)CO` [dexamethasone (tetramethyl-rhodamine conjugated )], for which it took 0.62 µM to reach half-maximal inhibition against Phospholipase A2 group V (IC50).
